Reference: patent publication US10239957B2, “Peptide containing conjugates for dual molecular delivery of oligonucleotides” (Merck Sharp & Dohme Corp., priority 2013, dated 2019)
In the oligonucleotide strings, read from the 5' end, every base follows the letter of its sugar. An asterisk marks phosphorothioate; unmarked linkages are phosphodiester. Other units and linkages are bracketed, terminal groups are in braces. A string of capitals states the bases alone. Where no end group is shown, it is not given here. [ ]: non-standard residue; d: D form. {NH2C6-invAb} = cap: inverted abasic residue carrying an aminohexyl phosphate (attachment handle); [invAb] = inverted abasic unit; TGN = not defined here; m = 2'-O-methyl; f = 2'-fluoro

Tests used:
CTNNB1 [1] = assay: In vivo evaluation in mice: liver mRNA knockdown measurement; conditions: for In vivo mRNA knockdown: mice
Protocol: (§1) Female CD-1 mice (Charles River) were injected in accordance with either a sequential dosing paradigm or a co-dosing paradigm. In the sequential dosing paradigm, the targeted siRNA (SCE) is dosed at t=0 and the targeted peptide is separately dosed up to 2 hr before the SCE (−2 hr) or up to 24 hr after the SCE (+24 hr). In the co-dosing paradigm, the SCE and peptides are co-formulated and dosed together in the same formulation as a single injection at t=0. The mice were dosed either by intravenous (i.v.) or subcutaneous (s.c.) injection of SCE and peptide. For the i.v. doses, the compounds were injected into the tail vein of the mice. For the s.c. doses, the compounds were injected in the subcutaneous space on the back of the mouse between the shoulder blades. At the indicated harvest times (measured from t=0 when the siRNA was dosed, regardless of when the peptide was dosed), the animals were sacrificed and 3 mm liver punches were collected, preserved in RNAlater (Ambion), and stored at 4° C. Separate 5 mm liver punches were collected, placed in 96-well plates, frozen on dry ice, and stored at −80° C. until use.
The 3 mm liver punches were removed from RNAlater and homogenized in Trizol (Invitrogen) using a bead mill tissue lyser (Qiagen); disruption was performed for two 5-minute cycles at 30 Hz. RNA extraction was performed using 1-bromo-2-chloropropane (Acros Organics) and total RNA was isolated from the aqueous phase using the MagMax RNA isolation method (Ambion). […] TaqMan qPCR analysis was performed with an ABI 7900 Real-Time PCR System using TaqMan Fast Advanced Master Mix (Applied Biosystems). All TaqMan probes and primers for CTNNB1 and PPIB (housekeeping gene) were purchased from Applied Biosystems as pre-validated gene expression assays. Results are calculated by the comparative Ct method, where the difference between the CTNNB1 Ct value and the PPIB Ct value (ΔCt) is calculated and then further normalized relative to the PBS control by taking a second difference (ΔΔCt), as described previously (1).

[2] = Lethality observed on in vivo dosing in mice; set-up: key: *: lethal at this dose
Protocol: as §1

CTNNB1 [3] = assay: In vitro DMD assay: mRNA silencing enhancement by peptide conjugates after siRNA-IV treatment; type: cell-based; conditions: primary mouse hepatocytes, siRNA-IV 125 nM baseline
Method in brief: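 Primary mouse hepatocytes were pretreated 1 h with siRNA-IV at 125 nM, then exposed ~16 h to peptide conjugates across a dose range, washed and held 24 h more. Target mRNA by RT-qPCR, normalized to PPIB (dddCt), expressed as enhancement over siRNA-IV alone relative to untreated cells.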

[4] = siRNA metabolic stability (order stated for FIG. 6); conditions: order siRNA-I>siRNA-V>siRNA-VI
[5] = TGN-L-siRNA-III 0.5 mg/kg IV, peptide 2 mg/kg IV 15 min after siRNA
[6] = TGN-L-siRNA-III 0.5 mg/kg IV, peptide 10 mg/kg IV 15 min after siRNA
[7] = TGN-L-siRNA-III 0.5 mg/kg IV, peptide 25 mg/kg IV 15 min after siRNA
[8] = TGN-L-siRNA-III 0.25 mg/kg IV, peptide 10 mg/kg IV 15 min after siRNA
[9] = TGN-L-siRNA-III 0.25 mg/kg IV, peptide 50 mg/kg IV 15 min after siRNA
[10] = TGN-L-siRNA-III 0.25 mg/kg IV, peptide 2 mg/kg IV 15 min after siRNA

## TGN-S-S-SEQ ID NO: 1248 (D) (C[dF][dL][dE][dE][dL][dW][dE][dL][dL][dE][dH][dL][dL]; not fully specified (residue 1); listed as Homo sapiens)
CTNNB1 [1]; [5]
  In vivo mRNA knockdown: 42%
CTNNB1 [1]; [6]
  In vivo mRNA knockdown: 74%
CTNNB1 [1]; [7]
  In vivo mRNA knockdown: 58%
[2]; [7]
  Lethality mark at targeted peptide dose: 25*

## TGN-S-S-SEQ ID NO: 1419 (D) (C[dF][dL][dE][dE][dL][dW]G[dL][dL][dE][dH][dL][dL]; not fully specified (residue 1); listed as Homo sapiens)
CTNNB1 [1]; [5]
  In vivo mRNA knockdown: 43%
CTNNB1 [1]; [6]
  In vivo mRNA knockdown: 78%
CTNNB1 [1]; [7]
  In vivo mRNA knockdown: 76%
[2]; [7]
  Lethality mark at targeted peptide dose: 25*

## TGN-S-S-SEQ ID NO: 1653 (D) ([dC]G[dL][dF]G[dE][dI][dA][dE][dL][dI][dW][dE]G[dL][dE][dN][dL][dI][dD][dW]G[dN]G; not fully specified (residue 1); also: TGN attached via disulfide; listed as Homo sapiens)
CTNNB1 [3]; Targeted peptide dose 25 nM
  In vitro dddCt (vs. baseline SCE dose): −0.76
CTNNB1 [3]; Targeted peptide dose 15625 nM
  In vitro dddCt (vs. baseline SCE dose): −2.13
CTNNB1 [1]; [8]
  In vivo mRNA knockdown: 63%
CTNNB1 [1]; [9]
  In vivo mRNA knockdown: 69%

## TGN-S-S-SEQ ID NO: 1654 (D) (CG[dL][dL][dE][dE][dI][dE][dE][dL][dL][dE][dE]G[dL][dE][dN][dL][dI][dD][dW]G[dN][dS]; not fully specified (residue 1); listed as Homo sapiens)
CTNNB1 [3]; Targeted peptide dose 25 nM
  In vitro dddCt (vs. baseline SCE dose): −0.39
CTNNB1 [3]; Targeted peptide dose 125 nM
  In vitro dddCt (vs. baseline SCE dose): −1.05
CTNNB1 [3]; Targeted peptide dose 3125 nM
  In vitro dddCt (vs. baseline SCE dose): −1.48
CTNNB1 [3]; Targeted peptide dose 15625 nM
  In vitro dddCt (vs. baseline SCE dose): −1.61
CTNNB1 [1]; [10]
  In vivo mRNA knockdown: 51%
CTNNB1 [1]; [8]
  In vivo mRNA knockdown: 72%
CTNNB1 [1]; [9]
  In vivo mRNA knockdown: 65%
[2]; [9]
  Lethality mark at targeted peptide dose: 50*

## TGN-S-S-SEQ ID NO: 1712 (L): TGN-S-S-peptide; peptide CFLGALWKALSELLKNLIDWWNG (C(TGN)FLGALWKALSELLKNLIDWWNG; reading uncertain; also: TGN disulfide conjugate at Cys1; listed as Homo sapiens)
CTNNB1 [3]; Targeted peptide dose 8 nM
  In vitro dddCt (vs. baseline SCE dose): 0.03
CTNNB1 [3]; Targeted peptide dose 40 nM
  In vitro dddCt (vs. baseline SCE dose): 0.07
CTNNB1 [3]; Targeted peptide dose 200 nM
  In vitro dddCt (vs. baseline SCE dose): −0.08
CTNNB1 [3]; Targeted peptide dose 1000 nM
  In vitro dddCt (vs. baseline SCE dose): 0
CTNNB1 [3]; Targeted peptide dose 5000 nM
  In vitro dddCt (vs. baseline SCE dose): −0.2
CTNNB1 [1]; TGN-L-siRNA-III 0.5 mg/kg IV, peptide 5 mg/kg IV 15 min after siRNA
  In vivo mRNA knockdown: 34%

## TGN-S-S-SEQ ID NO: 1713 (L) (C(TGN)GLRHGELEELSHEEGLENLIDWWNG; reading uncertain; also: TGN disulfide conjugate at Cys1; listed as Homo sapiens)
CTNNB1 [3]; Targeted peptide dose 8 nM
  In vitro dddCt (vs. baseline SCE dose): 0.21
CTNNB1 [3]; Targeted peptide dose 40 nM
  In vitro dddCt (vs. baseline SCE dose): 0.21
CTNNB1 [3]; Targeted peptide dose 200 nM
  In vitro dddCt (vs. baseline SCE dose): 0.15
CTNNB1 [3]; Targeted peptide dose 1000 nM
  In vitro dddCt (vs. baseline SCE dose): −0.04
CTNNB1 [3]; Targeted peptide dose 5000 nM
  In vitro dddCt (vs. baseline SCE dose): 0
CTNNB1 [1]; [10]
  In vivo mRNA knockdown: 0%
CTNNB1 [1]; [8]
  In vivo mRNA knockdown: 2%

## TGN-S-S-SEQ ID NO: 1740 (L): TGN-S-S-peptide; peptide GLFEAIEGFIENGWEGLAELAEALEALAAGGSC (GLFEAIEGFIENGWEGLAELAEALEALAAGGSC(TGN); reading uncertain; also: TGN linked to Cys via disulfide, TGN not defined; listed as Homo sapiens)
CTNNB1 [3]; Targeted peptide dose 8 nM
  In vitro dddCt (vs. baseline SCE dose): 0
CTNNB1 [3]; Targeted peptide dose 40 nM
  In vitro dddCt (vs. baseline SCE dose): 0.13
CTNNB1 [3]; Targeted peptide dose 200 nM
  In vitro dddCt (vs. baseline SCE dose): −0.07
CTNNB1 [3]; Targeted peptide dose 1000 nM
  In vitro dddCt (vs. baseline SCE dose): −0.06
CTNNB1 [3]; Targeted peptide dose 5000 nM
  In vitro dddCt (vs. baseline SCE dose): −0.06
CTNNB1 [1]; TGN-L-siRNA-II 0.25 mg/kg IV, peptide 3 mg/kg IV 15 min after siRNA
  In vivo mRNA knockdown: 20%

## TGN-S-S-SEQ ID NO: 1746 (D): TGN-S-S-peptide; peptide CEALFGKINAIFIGKL ([dC][dE][dA][dL][dF]G[dK][dI][dN][dA][dI][dF][dI]G[dK][dL]; not fully specified (residue 1); also: disulfide to TGN peptide via Cys1; listed as Homo sapiens)
CTNNB1 [3]; Targeted peptide dose 8 nM
  In vitro dddCt (vs. baseline SCE dose): −0.01
CTNNB1 [3]; Targeted peptide dose 40 nM
  In vitro dddCt (vs. baseline SCE dose): −0.09
CTNNB1 [3]; Targeted peptide dose 200 nM
  In vitro dddCt (vs. baseline SCE dose): −0.07
CTNNB1 [3]; Targeted peptide dose 1000 nM
  In vitro dddCt (vs. baseline SCE dose): −0.09
CTNNB1 [3]; Targeted peptide dose 5000 nM
  In vitro dddCt (vs. baseline SCE dose): −0.04
CTNNB1 [1]; [5]
  In vivo mRNA knockdown: 31%
CTNNB1 [1]; [6]
  In vivo mRNA knockdown: 25%

## siRNA-I: CTNNB1 siRNA; passenger SEQ ID NO 1803, guide SEQ ID NO 1804 (sense CUGUUGGAUUGAUUCGAAAUU; guide UUUCGAAUCAAUCCAACAGUU; (1)..(1) aminohexyl phosphate inverted abasic cap; (1)..(2) 2′-O-methyl; (3)..(3) 2′-deoxy-2′-fluoro; (4)..(5) 2′-O-methyl; (6)..(8) 2′-deoxy-2′-fluoro; (9)..(10) 2′-O-methyl; (11)..(12) 2′-deoxy-2′-fluoro; (13)..(15) 2′-O-methyl; (16)..(19) 2′-deoxy-2′-fluoro; (20)..(21) 2′-O-methyl; (20)..(21) phosphorothioate internucleotide linkage; (21)..(21) inverted abasic cap; (1)..(1) 2′-O-methyl; (1)..(2) phosphorothioate internucleotide linkage; (2)..(2) 2′-deoxy-2′-fluoro; (2)..(3) phosphorothioate internucleotide linkage; (3)..(3) 2′-O-methyl; (3)..(4) phosphorothioate internucleotide linkage)
CTNNB1 [1]; peptide within 2 hr before up to 24 hr after siRNA dose
  Effect of timing of peptide dose on activity, FIG. 6: does not significantly change the activity
[4]
  siRNA (metabolic) stability: highly stable

## siRNA-V: CTNNB1 siRNA; passenger SEQ ID NO 1803, guide SEQ ID NO 1808 (sense {NH2C6-invAb}-mCmUfGmUmUfGfGfAmUmUfGfAmUmUmCfGfAfAfAmU*mU[invAb]; guide mUfUmUfCmGfAmAfUmCfAmAfUmCfCmAfAmCfAmGmU*mU)
CTNNB1 [1]; longer separation times (4-24 hr post-siRNA dose)
  Activity, FIG. 6: background levels
CTNNB1 [1]; peptide dose times within 2 hr (before or after) the siRNA
  Activity (KD), FIG. 6: ~25%
[4]
  siRNA (metabolic) stability: moderately stable

## siRNA-VI: CTNNB1 siRNA; passenger SEQ ID NO 1803, guide SEQ ID NO 1809 (sense {NH2C6-invAb}-mCmUfGmUmUfGfGfAmUmUfGfAmUmUmCfGfAfAfAmU*mU[invAb]; guide fUfUfUmCfGfAfAmUmCfAfAmUmCfCfAfAmCfAfGmU*mU)
CTNNB1 [1]; DMD with peptide, more unstable siRNA
  Activity, FIG. 6: background levels
[4]
  siRNA (metabolic) stability: more unstable
